Results as given in patent publication US6489315B1, “Cyclic compounds, their production and use” (Takeda Chemical Industries, Ltd., priority 1995, dated 2002).

| SMILES | melting point |
| --- | --- |
| CC1CCn2c(c(-c3ccccc3)c3cccnc3c2=O)C(=O)N(Cc2cc(C(F)(F)F)cc(C(F)(F)F)c2)C1 (racemic) [Example 15, (+/−)-7-[3,5-Bis(trifluoromethyl)benzyl]-6,7,8,9,10,11-hexahydro-9-methyl-6,13-dioxo-5-phenyl-13H-[1,4]diazocino[2,1-g][1,7]naphthyridine] | 257 to 258 °C |
| Cc1ccc(-c2c3n(c(=O)c4ncccc24)CCC(C)CN(Cc2cc(C(F)(F)F)cc(C(F)(F)F)c2)C3=O)cc1 (racemic) [Example 16, (+/−)-7-[3,5-Bis(trifluoromethyl)benzyl]-6,7,8,9,10,11-hexahydro-9-methyl-5-(4-methylphenyl)-6,13-dioxo-13H-[1,4]diazocino[2,1-g][1,7]naphthyridine] | 280 to 281 °C |
| Cc1ccc(-c2c3n(c(=O)c4ncccc24)CC(O)CN(Cc2cc(C(F)(F)F)cc(C(F)(F)F)c2)C3=O)cc1 (racemic) [Example 25, (+/−)-7-[3,5-Bis(trifluoromethyl)benzyl]-6,7,8,9,10,12-hexahydro-9-hydroxy-5-(4-methylphenyl)-6,12-dioxo[1,4]diazepino [2,1-g][1,7]naphthyridine] | 282 to 283 °C |
| Cc1ccc(-c2c3n(c(=O)c4ncccc24)CCN(Cc2cc(C(F)(F)F)cc(C(F)(F)F)c2)C3=O)cc1 [Example 1, 7-[3,5-Bis(trifluoromethyl)benzyl]-6,7,8,9-tetrahydro-5-(4-methylphenyl)-6,11-dioxo-11H-pyrazino[2,1-g][1,7]naphthyridine] | 270 to 271 °C |
| Cc1ccc(-c2c3n(c(=O)c4ncccc24)CCCN(Cc2cc(C(F)(F)F)cc(C(F)(F)F)c2)C3=O)cc1 [Example 2, 7-[3,5-Bis(trifluoromethyl)benzyl]-6,7,8,9,10,12-hexahydro-5-(4-methylphenyl)-6,12-dioxo[1,4]diazepino[2,1-g][1,7]naphthyridine] | 194 to 195 °C |
| O=C1c2c(-c3ccccc3)ccnc2OCCN1Cc1cc(C(F)(F)F)cc(C(F)(F)F)c1 [Example 11, 4-[3,5-Bis(trifluoromethyl)benzyl]-2,3,4,5-tetrahydro-5-oxo-6-phenylpyrido[3,2-f][1,4]oxazepine] | 200 to 201 °C |
| Cc1ccc(-c2c3n(c(=O)c4ncccc24)C[C@H](C)CN(Cc2cc(C(F)(F)F)cc(C(F)(F)F)c2)C3=O)cc1 [Example 12, (9R)-7-[3,5-Bis(trifluoromethyl)benzyl]-6,7,8,9,10,12-hexahydro-9-methyl-5-(4-methylphenyl)-6,12-dioxo[1,4]diazepino[2,1-g][1,7]naphthyridine] | 179 to 180 °C |
| C[C@H]1CN(Cc2cc(C(F)(F)F)cc(C(F)(F)F)c2)C(=O)c2c(-c3ccccc3)c3cccnc3c(=O)n2C1 [Example 13, (9S)-7-[3,5-Bis(trifluoromethyl)benzyl]-6,7,8,9,10,12-hexahydro-9-methyl-6,12-dioxo-5-phenyl[1,4]diazepino[2,1-g][1,7]naphthyridine] | 150 to 152 °C |
| Cc1ccc(-c2c3n(c(=O)c4ncccc24)C[C@@H](C)CN(Cc2cc(C(F)(F)F)cc(C(F)(F)F)c2)C3=O)cc1 [Example 14, (9S)-7-(3,5-Bis(trifluoromethyl)benzyl]-6,7,8,9,10,12-hexahydro-9-methyl-5-(4-methylphenyl)-6,12-dioxo[1,4]diazepino[2,1-g][1,7]naphthyridine] | 179 to 180 °C |
| C[C@@H]1CCn2c(c(-c3ccccc3)c3cccnc3c2=O)C(=O)N(Cc2cc(C(F)(F)F)cc(C(F)(F)F)c2)C1 [Example 17, (9R)-7-[3,5-Bis(trifluoromethyl)benzyl]-6,7,8,9,10,11-hexahydro-9-methyl-6,13-dioxo-5-phenyl-13H-[1,4]diazocino[2,1-g][1,7]naphthyridine] | 245 to 247 °C |
| Cc1ccc(-c2c3n(c(=O)c4ncccc24)CC[C@@H](C)CN(Cc2cc(C(F)(F)F)cc(C(F)(F)F)c2)C3=O)cc1 [Example 18, (9R)-7-[3,5-Bis(trifluoromethyl)benzyl]-6,7,8,9,10,11-hexahydro-9-methyl-5-(4-methylphenyl)-6,13-dioxo-13H-[1,4]diazocino[2,1-g][1,7]naphthyridine] | 226 to 228 °C |
| C[C@H]1CCn2c(c(-c3ccccc3)c3cccnc3c2=O)C(=O)N(Cc2cc(C(F)(F)F)cc(C(F)(F)F)c2)C1 [Example 19, (9S)-7-[3,5-Bis(trifluoromethyl)benzyl]-6,7,8,9,10,11-hexahydro-9-methyl-6,13-dioxo-5-phenyl-13H-[1,4]diazocino[2,1-g][1,7]naphthyridine] | 242 to 244 °C |
| Cc1ccc(-c2c3n(c(=O)c4ncccc24)CC[C@H](C)CN(Cc2cc(C(F)(F)F)cc(C(F)(F)F)c2)C3=O)cc1 [Example 20, (9S)-7-[3,5-Bis(trifluoromethyl)benzyl]-6,7,8,9,10,11-hexahydro-9-methyl-5-(4-methylphenyl)-6,13-dioxo-13H-[1,4]diazocino[2,1-g][1,7]naphthyridine] | 227 to 228 °C |
| O=C1c2c(-c3ccccc3)ccnc2NCCN1Cc1cc(C(F)(F)F)cc(C(F)(F)F)c1 [Example 21, 4-[3,5-Bis(trifluoromethyl)benzyl]-2,3,4,5-tetrahydro-5-oxo-6-phenyl-1H-pyrido[2,3-e][1,4]diazepine] | 242 to 243 °C |
| O=C1c2c(-c3ccccc3)ccnc2OCCCN1Cc1cc(C(F)(F)F)cc(C(F)(F)F)c1 [Example 22, 5-[3,5-Bis(trifluoromethyl)benzyl]-2,3,4,5-tetrahydro-6-oxo-7-phenyl-6H-pyrido(2,3-b)[1,5]oxazocine] | 188 to 189 °C |
| Cc1cnc2c(c1-c1ccccc1)C(=O)N(Cc1cc(C(F)(F)F)cc(C(F)(F)F)c1)C[C@@H](C)CO2 [Example 32, (R)-5-[3,5-Bis(trifluoromethyl)benzyl]-2,3,4,5-tetrahydro-3,8-dimethyl-6-oxo-7-phenyl-6H-pyrido[2,3-b][1,5]oxazocine] | 147 to 149 °C |
| Cc1cc(-c2ccccc2)c2c(n1)OCCN(Cc1cc(C(F)(F)F)cc(C(F)(F)F)c1)C2=O [Example 33, 4-[3,5-Bis(trifluoromethyl)benzyl)-2,3,4,5-tetrahydro-8-methyl-5-oxo-6-phenylpyrido[3,2-f][1,4]oxazepine] | 151 to 153 °C |
| Cc1cc(-c2ccccc2)c2c(n1)OCCCN(Cc1cc(C(F)(F)F)cc(C(F)(F)F)c1)C2=O [Example 34, 5-[3,5-Bis(trifluoromethyl)benzyl]-2,3,4,5-tetrahydro-9-methyl-6-oxo-7-phenyl-6H-pyrido[2,3-b][1,5]oxazocine] | 164 to 165 °C |
| Cc1cc(-c2ccccc2)c2c([n+]1[O-])OCCN(Cc1cc(C(F)(F)F)cc(C(F)(F)F)c1)C2=O [Example 35] | 181 to 183 °C |
| CC(=O)OCc1cc(-c2ccccc2)c2c(n1)OCCN(Cc1cc(C(F)(F)F)cc(C(F)(F)F)c1)C2=O [Example 37, 8-Acetoxymethyl-4-[3,5-bis(trifluoromethyl)benzyl]-2,3,4,5-tetrahydro-5-oxo-6-phenylpyrido(3,2-f][1,4]oxazepine] | 122 to 124 °C |
| CC(=O)OCc1cc(-c2ccccc2)c2c(n1)OCCCN(Cc1cc(C(F)(F)F)cc(C(F)(F)F)c1)C2=O [Example 38, 9-Acetoxymethyl-5-[3,5-bis(trifluoromethyl)benzyl]-2.3,4,5-tetrahydro-6-oxo-7-phenyl-6H-pyrido[2,3-b][1,5]oxazocine] | 156 to 157 °C |
| O=C1c2c(-c3ccccc3)cc(CCl)nc2OCCN1Cc1cc(C(F)(F)F)cc(C(F)(F)F)c1 [Example 39, 4-[3,5-Bis(trifluoromethyl)benzyl]-8-chloromethyl-2,3,4,5-tetrahydro-5-oxo-6-phenylpyrido[3,2-f][1,4]oxazepine] | 183 to 184 °C |
| COCc1cc(-c2ccccc2)c2c(n1)OCCN(Cc1cc(C(F)(F)F)cc(C(F)(F)F)c1)C2=O [Example 40, 4-[3,5-Bis(trifluoromethyl)benzyl]-2,3,4,5-tetrahydro-8-methoxymethyl-5-oxo-6-phenylpyrido[3,2-f][1,4]oxazepine] | 139 to 140 °C |
| CSCc1cc(-c2ccccc2)c2c(n1)OCCN(Cc1cc(C(F)(F)F)cc(C(F)(F)F)c1)C2=O [Example 42, 4-[3,5-Bis(trifluoromethyl)benzyl]-2,3,4,5-tetrahydro-8-methylthiomethyl-5-oxo-6-phenylpyrido[3,2-f][1,4]oxazepine] | 165 to 166 °C |
| NCc1cc(-c2ccccc2)c2c(n1)OCCN(Cc1cc(C(F)(F)F)cc(C(F)(F)F)c1)C2=O [Example 43, 8-Aminomethyl-4-[3,5-bis(trifluoromethyl)benzyl]-2,3,4,5-tetrahydro-5-oxo-6-phenylpyrido[3,2-f][1,4]oxazepine] | 188 to 191 °C |
| CNCc1cc(-c2ccccc2)c2c(n1)OCCN(Cc1cc(C(F)(F)F)cc(C(F)(F)F)c1)C2=O [Example 44, 4-[3,5-Bis(trifluoromethyl)benzyl]-2,3,4,5-tetrahydro-8-methylaminomethyl-5-oxo-6-phenylpyrido[3,2-f][1,4]oxazepine] | 152 to 154 °C |
| CN(C)Cc1cc(-c2ccccc2)c2c(n1)OCCN(Cc1cc(C(F)(F)F)cc(C(F)(F)F)c1)C2=O [Example 45, 4-[3,5-Bis(trifluoromethyl)benzyl]-8-dimethylaminomethyl-2,3,4,5-tetrahydro-5-oxo-6-phenylpyrido[3,2-f][1,4]oxazepine] | 186 to 188 °C |
| O=C1c2c(-c3ccccc3)cc(CNC3CC3)nc2OCCN1Cc1cc(C(F)(F)F)cc(C(F)(F)F)c1 [Example 46, 4-[3,5-Bis(trifluoromethyl)benzyl]-8-cyclopropylaminomethyl-2,3,4,5-tetrahydro-5-oxo-6-phenylpyrido[3,2-f][1,4]oxazepine] | 129 to 131 °C |
| CC(=O)NCc1cc(-c2ccccc2)c2c(n1)OCCN(Cc1cc(C(F)(F)F)cc(C(F)(F)F)c1)C2=O [Example 48, 8-Acetylaminomethyl-4-[3,5-bis(trifluoromethyl)benzyl]-2,3,4,5-tetrahydro-5-oxo-6-phenylpyrido[3,2-f][1,4]oxazepine] | 223 to 224 °C |
| CS(=O)(=O)NCc1cc(-c2ccccc2)c2c(n1)OCCN(Cc1cc(C(F)(F)F)cc(C(F)(F)F)c1)C2=O [Example 49, 4-[3,5-Bis(trifluoromethyl)benzyl]-2,3,4,5-tetrahydro-8-methanesulfonylaminomethyl-5-oxo-6-phenylpyrido[3,2-f][1,4]oxazepine] | 194 to 195 °C |
